Results reported in US20120094949A1, “HISTONE MODIFICATION PATTERNS FOR CLINICAL DIAGNOSIS AND PROGNOSIS OF CANCER” (The Regents of the University of California, priority 2009, published 2012).

What was measured:
[1] = tested on: pancreatic adenocarcinoma; assay: Kaplan-Meier survival analysis comparing adjuvant treatments within histone groups, RTOG 9704 TMA; format: in vivo, human; details: adjuvant chemotherapy; for overall or disease-free survival, gemcitabine or 5-FU: each of the high level histone subgroups
Description: METHODS: Tissue microarrays (TMAs) from two large pancreatic adenocarcinoma cohorts were examined, including a 195 patient cohort from RTOG 9704, a multi-center phase III randomized treatment trial comparing adjuvant gemcitabine versus 5-fluorouracil (5-FU), and a 140 patient cohort of Stage I or II cancer from UCLA Medical Center. Immunohistochemistry for three histone modifications (H3K4me2, H3K9me2 and H3K18ac) was performed. Positive tumor cell staining of the histone modifications was used to classify patients into low and high staining groups, which were related to clinicopathologic parameters and clinical outcome measures.
Pancreatic adenocarcinoma patients and tissue microarrays. The RTOG 9704 pancreatic cancer tissue microarray (TMA) consisted of 229 cases of pancreatic adenocarcinoma obtained from patients enrolled in RTOG 9704, a phase III randomized post-operative adjuvant treatment trial comparing 5-fluorouracil (5-FU) to gemcitabine before and after chemoradiation (Regine et al., Jama 299:1019-26 (2008)). In RTOG 9704, all patients received adjuvant chemotherapy (5-FU or gemcitabine) for durations of one month before and three months following chemoradiation therapy, which included 5-FU infusion as a radiation sensitizer. Clinicopathologic factors were collected as part of patient enrollment, as were treatment schedules and follow-up clinical information including toxicity, overall survival and disease-free survival. The UCLA Stage I/II pancreatic cancer TMA consisted of 140 cases of AJCC stage I or II pancreatic adenocarcinoma from the UCLA Department of Pathology and Laboratory Medicine archives, representing patients who underwent complete gross resection of tumor at UCLA Medical Center between 1987 and 2005. All work was performed with appropriate institutional review board approvals.
Statistical Analysis. Specific histone cut-offs were previously shown to predict survival in subsets of patients with multiple types of carcinoma, including prostate, lung and kidney (Seligson et al., Am J Pathol 174:1619-1628 (2009); Seligson et al., Nature 435:1262-6 (2005)). In order to standardize and apply these same cut-offs in both pancreatic cancer TMAs, each tumor was assigned a percent rank value (quantile) based on median percent of cells staining relative to its TMA dataset using the SAS system procedure RANK with TIES=LOW option, which assigns the smallest of the corresponding ranks for the ties data values. Each tumor was then assigned into a low or high level staining group based on its percent rank, including H3K4me2 (<60 vs. ≧60 percent rank), H3K9me2 (<30 vs. ≧30 percent rank for the RTOG TMA or <25 vs. ≧25 percent rank for the UCLA Stage I/II TMA) and H3K18ac (<35 vs. ≧35 percent rank). Survival estimates were generated and visualized using the Kaplan-Meier method and survival curves were compared using the log-rank test. Multivariate Cox proportional hazards models were used to test statistical independence and significance of multiple predictors. Overall survival time was measured from the date of randomization (RTOG 9704 TMA) or date of surgery (UCLA Stage I/II TMA) to the date of death due to any cause or last follow-up. Disease-free survival time was only determined for RTOG 9704 and was measured from the date of randomization to the date of first disease-free failure event defined as local or regional disease relapse, distant disease, second primary or death due to any cause. […]

[2] = tested on: pancreatic adenocarcinoma; details: setting of fluorouracil-based chemoradiation; resected pancreatic cancer; cited from earlier work

| SMILES | overall or disease-free survival, gemcitabine or 5-FU ([1]; data not shown) | overall survival, 5-FU versus gemcitabine ([1]; low H3K4me2 subgroup, data not shown) | disease-free survival, 5-FU versus gemcitabine ([1]; low H3K4me2 subgroup, log rank test p=0.014) | disease-free survival, 5-FU versus gemcitabine ([1]; low H3K18ac subgroup, log rank test p=0.015) | survival benefit of adjuvant gemcitabine over adjuvant 5-FU [2] |
| --- | --- | --- | --- | --- | --- |
| O=c1[nH]cc(F)c(=O)[nH]1 [5-FU, 5-fluorouracil] | no significant differences | non-significant trend towards worse overall survival | worse disease-free survival | worse disease-free survival | – |
| Nc1ccn([C@@H]2O[C@H](CO)[C@@H](O)C2(F)F)c(=O)n1 [gemcitabine] | no significant differences | – | – | – | non-statistically significant survival benefit |
